From ChEMBL document CHEMBL3046868, “Synthesis and biological activities of 4-trifluoromethylindole-3-acetic acid: a new fluorinated indole auxin” (2008)
Activity calls are given as the source filed them. The calls are words filed in the database; no cut-off is given here.

What was measured:
[1] = tested on: Vigna mungo; experiment: Root formation-promoting activity in Vigna mungo (black gram) cuttings at 1 x 10^-4 M relative to IBA (reference value: 35 +/- 8%); format: functional
[2] = tested on: Vigna mungo; experiment: Induction of callus formation on Vigna mungo (black gram) seedlings at 3 x 10^-5 M after 3 days; format: functional, organism-based
[3] = tested on: Vigna mungo; experiment: Enhancement of lateral root formation in intact Vigna mungo (black gram) seedlings at 3 x 10^-6 M; format: functional, organism-based
[4] = tested on: Vigna mungo; experiment: Enhancement of hypocotyl swelling in intact Vigna mungo (black gram) seedlings at 3 x 10^-6 M; format: functional, organism-based
[5] = tested on: Brassica rapa subsp. pekinensis; experiment: Relative growth inhibitory activity of Brassica rapa subsp. pekinensis (Chinese cabbage) hypocotyl at 1 x 10^-7 to 1 x 10^-4 M
[6] = tested on: Vigna mungo; experiment: Ratio of compound activity to IBA activity for root formation-promoting activity in Vigna mungo (black gram) cuttings at 1 x 10^-4 M; format: functional
[7] = tested on: Vigna mungo; experiment: Induction of callus formation on Vigna mungo (black gram) seedlings at > 3 x 10^-3 M after 3 days; format: functional, organism-based
[8] = tested on: Vigna mungo; experiment: Enhancement of lateral root formation in intact Vigna mungo (black gram) seedlings at 3 x 10^-4 M; format: functional, organism-based
[9] = tested on: Brassica rapa subsp. pekinensis; experiment: Ratio of IAA activity to compound activity for growth inhibition of Brassica rapa subsp. pekinensis (Chinese cabbage) hypocotyl at 1 x 10^-7 to 1 x 10^-4 M; format: functional
[10] = tested on: Vigna mungo; experiment: Enhancement of hypocotyl swelling in intact Vigna mungo (black gram) seedlings at 3 x 10^-4 M; format: functional, organism-based
[11] = tested on: Brassica rapa subsp. pekinensis; experiment: Growth inhibition of Brassica rapa subsp. pekinensis (Chinese cabbage) hypocotyl at 1 x 10^-7 to 1 x 10^-4 M; format: functional
[12] = tested on: Vigna mungo; experiment: Enhancement of lateral root formation in intact Vigna mungo (black gram) seedlings at 1 x 10^-4 M; format: functional, organism-based
[13] = tested on: Vigna mungo; experiment: Enhancement of hypocotyl swelling in intact Vigna mungo (black gram) seedlings at 1 x 10^-4 M; format: functional, organism-based
[14] = tested on: Vigna mungo; experiment: Enhancement of lateral root formation in intact Vigna mungo (black gram) seedlings at 1 x 10^-6 M; format: functional, organism-based
[15] = tested on: Vigna mungo; experiment: Enhancement of hypocotyl swelling in intact Vigna mungo (black gram) seedlings at 1 x 10^-6 M; format: functional, organism-based

Cc1cccc2[nH]cc(CC(=O)O)c12
Activity [1]: 70%
Activity [2]: Active
Activity [3]: Active
Activity [4]: Active
relative activity (%) [5]: 40%

O=C(O)Cc1c[nH]c2cccc(C(F)(F)F)c12
Activity [1]: 156%
Ratio [6]: 1.5
Activity [7]: Active
Activity [8]: Active
Ratio [9]: 6
Activity [10]: Active
growth inhibition (GI) [11]: Active

O=C(O)Cc1c[nH]c2ccccc12 [INDOLE-3-ACETIC ACID]
Activity [1]: 36%
Activity [12]: Active
Activity [13]: Active

O=C(O)Cc1c[nH]c2cccc(Cl)c12
Activity [1]: 384%
Activity [2]: Active
Activity [14]: Active
Activity [15]: Active
relative activity (%) [5]: 6%

O=C(O)CCCc1c[nH]c2ccccc12
Activity [1]: 100%
